Assays:
[1] = system: extirpated mouse lymph duct (efferent lymph duct of iliac lymph node); experiment: Test for inhibition of spontaneous contraction of lymph duct (perfused extirpated mouse lymph duct, video microscope); design: species or system DDY mice
Method: The evaluation method of relaxation or contraction response is conducted based on a value (relative spontaneous contraction suppression) obtained by dividing the number of spontaneous contractions per minute observed after drug administration until returning to even spontaneous contractions by the average number of spontaneous contractions per minute before drug administration. For example, supposing that it takes 3 minutes to return to even spontaneous contractions after drug administration and that the contractions occur 9 times during that period, the value after drug administration is 3 times/minute. Therefore, if the frequency before drug administration is 15 times/minute, the suppression effect is represented as 20%, which is calculated by dividing 3 by 15 and standardizing the quotient as a percent.
Pentbarbital sodium (50 mg/kg) was intraperitoneally administered to DDY mice (male, 5 to 6 weeks old) so as to be anesthetized and sacrificed, and an efferent lymph duct of an iliac lymph node (with a maximum inner diameter of 300 μm) was extirpated. The extirpated lymph duct was preserved in a chilled Krebs solution (120 mM NaCl, 5.9 mM KCl, 2.5 mM CaCl2, 1.2 mM MgSO4, 1.2 mM NaH2PO4, 5.5 mM glucose, 25.0 mM NaHCO3) at 4° C.
The inner diameter of the perfused extirpated mouse lymph duct specimen, as obtained above, was measured using a video microscope system (FIG. 1). An internal pressure of 3 to 4 cm H2O was supplied to the specimen to induce spontaneous contraction.
Effects of PTHrP(1-34) on spontaneous contraction of the lymph duct were examined and compared with a control, in the presence of NO synthesis inhibitor (L-NAME, 3×10^−5 M), L-arginine (10^−3 M) as a substrate of […], glibenclamide 10^−6 M as an ATP-sensitive K^+ channel inhibitor, and PTHrP(7-34) as a PTH receptor antagonist.

[2] = system: extirpated human medullary arteriole; experiment: Relaxation effects on an extirpated human medullary arteriole (perfused specimen); conditions: control 127 μm
Method: Resistance vessel extirpated from femoral cancellous bone and the inside of femoral bone marrow during an artificial joint replacement surgery of a human (malum coxae) was used as a sample of human medullary arteriole. The extirpated femoral concellous bone and femoral bone marrow were preserved in a chilled Krebs solution (at 4° C. or lower), and thereafter used in the following in vitro experiment.
A perfused specimen from this sample was prepared in the same manner as the perfused specimen of the extirpated mouse miniature lymph duct in Example 1.
An image of the diameter of the specimen was captured through an object lens, a taking lens, and a CCD camera in the same manner as Example 2.
With respect to the perfused specimen as prepared above, relaxation effect of PTHrP(1-34)(10^−8M) in the presence of vasoconstricting norepinephrine (NE, 10^−6 M) was examined.

[3] = system: extirpated rat medullary arteriole; experiment: Inner diameter changes of perfused medullary arteriole specimen of rat thigh bone; design: species or system Wistar rats
Method: Wistar rats (male, 5 to 6 weeks old) were anesthetized with pentbarbital ([…] of intraperitoneal administration) and sacrificed. All the skin, muscle, and ligament attached to the thigh bones were removed so as to expose and extirpate the thigh bones. The extirpated thigh bones were preserved in Krebs solution (at approximately 4° C.) for approximately 30 minutes. Strength was applied along the long axis direction of the thigh bone using mosquito forceps so as to crack the thigh bone along the long axis. Then, the cracked thigh bone was place into a petri dish (containing Krebs solution at approximately 4° C.) which was coated with SILIGUARD. Under a stereoscopic microscope, the thigh bone was removed using microsurgical forceps (commercially available forceps that was further sharpened by a grinder) to expose the bone marrow.
Krebs solution (at approximately 4° C.) was filled into a 1 ml syringe (having a 27G needle attached thereto) and the inside of the bone marrow was washed with the Krebs solution so as to remove myeloid cells adhering to blood vessels.
As a result, a blood vessel network was observed (FIG. 8), and arterioles indicated by black wedge-shaped arrowheads were extirpated under a stereoscopic microscope using micro cusps and microsurgical forceps.
The extirpated medullary arteriole was fixed in an apparatus for preparing a perfused specimen (FIG. 1, vessel chamber 9), and a hydrostatic pressure was supplied thereto so as to wash and remove blood from the arteriole lumen. The inner pressure of the specimen was kept at 40 mmHg during the experiment and the exposed side of the specimen was continuously perfused (12 ml/min) with Krebs solution which was kept at 37° C. and pH of 7.4.
An image of the diameter of the specimen was captured through a object lens, a taking lens, and a CCD camera.

N=C(N)NCCC[C@H](N)C(=O)O [L-arginine]
effect of simultaneous treatment with L-NAME on the cancellation effect, typical response ([1]; L-arginine 10^−3 M with L-NAME 3×10^−5 M, PTHrP(1-34) 3×10^−9 M, FIG. 3C): suppressed the cancellation effect of L-NAME | effect of simultaneous treatment with L-NAME on the cancellation effect, four measurements ([1]; L-arginine (10^−3 M) with L-NAME (3×10^−5 M), FIG. 4): significantly suppressed the cancellation effect of L-NAME

COc1ccc(Cl)cc1C(=O)NCCc1ccc(S(=O)(=O)NC(=O)NC2CCCCC2)cc1 [glibenclamide]
effect on lymph duct relaxation caused by PTHrP(1-34), typical response ([1]; glibenclamide 10^−6 M, PTHrP(1-34) 3×10^−9 M, FIG. 5B): cancelled out | effect on lymph duct relaxation caused by PTHrP(1-34), four measurements ([1]; glibenclamide (10^−6 M), FIG. 6): significantly cancelled out

PTHrP(1-34): peptide comprising a sequence of 1 to 34 amino acids relative to the amino acid sequences of the PTHrP
frequency of spontaneous contraction after drug administration ([1]; 3×10^−10 of PTHrP(1-34), 15 times/minute before drug administration, FIG. 2A): 13 times/minute | effect on spontaneous contractions of the lymph duct at increased concentration ([1]; PTHrP(1-34) 10^−9 M, 3×10^−9 M, in addition to dilation responses, FIG. 2A): stopped remarkably | effect of increasing PTHrP(1-34) on lymph duct (relative spontaneous contraction frequency ratio) ([1]; control without L-NAME and L-arginine, four measurements, FIG. 4): relaxed the lymph duct | tachyphylaxis on repeated dose response ([1]; same specimen washed for 1 hour, dose response re-examined, FIG. 2B): induced remarkable tachyphylaxis | inner diameter of perfused specimen after addition of PTHrP(1-34) in the presence of NE ([2]; PTHrP(1-34) 10^−8 M with NE 10^−6 M, NE alone 33 μm, FIG. 11(c)): 121 μm | dose dependence of dilation effect ([3]; 10^−10 to 10^−8 M, FIG. 10): dose dependent | inner diameter at maximum dilation (relaxation) after administration ([3]; PTHrP(1-34) 10^−8 M, dilated from 66 μm, passive diameter 120 μm, internal pressure 40 mmHg, FIG. 9): 114 μm | dose at which dilation response was induced ([3]; dose range 10^−10 to 10^−8 M, FIG. 10): 10^−9 M

PTHrP(7-34): peptide having a sequence comprising from 7 to 34 amino acids of PTHrP; PTH/PTHrP receptor antagonist
effect on lymph duct relaxation by PTHrP(1-34), four individual examples ([1]; PTHrP(7-34) 10^−7 M, PTHrP(1-34) 10^−10 to 3×10^−9 M, FIG. 7): significantly cancelled out

COC(=O)[C@@H](N)CCCNC(=N)N[N+](=O)[O-] [L-NAME, N^G-nitro L-arginine methyl ester]
effect on inhibition of spontaneous lymph duct contraction by PTHrP(1-34), typical response ([1]; L-NAME 3×10^−5 M, PTHrP(1-34) 3×10^−9 M, FIG. 3B): cancelled out | effect on lymph duct relaxation by PTHrP(1-34), four measurements ([1]; in the presence of L-NAME (3×10^−5 M), FIG. 4): significantly cancelled out

NC[C@H](O)c1ccc(O)c(O)c1 [NE, norepinephrine]
inner diameter of perfused specimen in the presence of NE ([2]; NE 10^−6 M, internal pressure 55 mmHg, FIG. 11(b)): 33 μm

Reference: US20030181373A1, “Vascular relaxation agents” (priority 2000, published 2003)
